In BigSolDB 2.1:

O=Cc1ccc2ccccc2c1
solubility (mole fraction)
Settings	283.15 K	288.15 K	293.15 K	298.15 K	303.15 K	308.15 K	313.15 K
in ethanol	0.0161	0.0245	0.0377	0.0653	0.11	0.191	0.314
in isopropanol	0.0115	0.0201	0.0404	0.0557	0.0908	0.144	0.237
in methanol	0.00592	0.00987	0.0163	0.0274	0.0418	0.0696	0.119
in n-butanol	0.0195	0.0281	0.0425	0.0561	0.0758	0.117	0.164
in n-heptane	0.00944	0.0128	0.0164	0.0192	0.0255	0.0345	0.0415
in n-hexane	0.00727	0.00923	0.0128	0.0159	0.0189	0.026	0.0314
